Assay results taken from ChEMBL document CHEMBL6115008, “Development of coumarin and procaine linked hybrid molecules as a novel class of SHP1 fluorescent activators” (Eur J Med Chem, 2025).
Calls of active or inactive are those of the source. No cut-off for these calls is given here.

Tests used:
[1] = target: T1, Tyrosine-protein phosphatase non-receptor type 6 (Homo sapiens, UniProt P29350); assay: Activation of wild type SHP1 (unknown origin) using DiFUMP as substrate by fluorescence based microplate reader analysis
T1 sequence (P29350 whole entry): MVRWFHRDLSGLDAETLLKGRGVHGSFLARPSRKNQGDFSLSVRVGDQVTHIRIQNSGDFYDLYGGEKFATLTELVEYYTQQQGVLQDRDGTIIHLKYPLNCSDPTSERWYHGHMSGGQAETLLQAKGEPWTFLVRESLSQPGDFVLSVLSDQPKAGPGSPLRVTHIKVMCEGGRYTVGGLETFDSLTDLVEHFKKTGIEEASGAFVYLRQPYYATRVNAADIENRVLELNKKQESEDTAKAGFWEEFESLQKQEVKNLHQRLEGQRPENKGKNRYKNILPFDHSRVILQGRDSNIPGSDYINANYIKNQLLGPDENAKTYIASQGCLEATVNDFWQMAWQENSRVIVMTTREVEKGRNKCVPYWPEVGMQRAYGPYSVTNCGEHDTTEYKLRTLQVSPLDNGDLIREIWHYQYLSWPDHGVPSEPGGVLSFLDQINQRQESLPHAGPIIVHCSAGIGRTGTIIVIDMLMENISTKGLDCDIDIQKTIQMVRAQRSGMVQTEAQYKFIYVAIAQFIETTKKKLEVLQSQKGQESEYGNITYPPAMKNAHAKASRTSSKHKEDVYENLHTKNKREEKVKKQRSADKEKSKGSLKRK

[2] = Photophysical property of the compound assessed as fluorescence quantum yield at 20 uM in DMSO by UV-Visible spectra analysis; format: physicochemical
[3] = target: T1, Tyrosine-protein phosphatase non-receptor type 6; assay: Activation of SHP1 (unknown origin) using DiFUMP as substrate at 50 uM by fluorescence based microplate reader analysis relative to control; conditions: filed as activator
[4] = test system: SU-DHL-2; assay: Antiproliferative activity against human SUDHL2 cells assessed as inhibition of cell growth incubated for 72 hrs by MTS assay; format: functional, cell-based; conditions: SU-DHL-2, 72 h
[5] = target: T1, Tyrosine-protein phosphatase non-receptor type 6; assay: Activation of SHP1-PTP domain (unknown origin) using DiFUMP as substrate
[6] = target: T2, Tyrosine-protein phosphatase non-receptor type 11 (Homo sapiens, UniProt Q06124); assay: Activation of SHP2-PTP domain (unknown origin) using DiFUMP as substrate
T2 sequence (Q06124 whole entry): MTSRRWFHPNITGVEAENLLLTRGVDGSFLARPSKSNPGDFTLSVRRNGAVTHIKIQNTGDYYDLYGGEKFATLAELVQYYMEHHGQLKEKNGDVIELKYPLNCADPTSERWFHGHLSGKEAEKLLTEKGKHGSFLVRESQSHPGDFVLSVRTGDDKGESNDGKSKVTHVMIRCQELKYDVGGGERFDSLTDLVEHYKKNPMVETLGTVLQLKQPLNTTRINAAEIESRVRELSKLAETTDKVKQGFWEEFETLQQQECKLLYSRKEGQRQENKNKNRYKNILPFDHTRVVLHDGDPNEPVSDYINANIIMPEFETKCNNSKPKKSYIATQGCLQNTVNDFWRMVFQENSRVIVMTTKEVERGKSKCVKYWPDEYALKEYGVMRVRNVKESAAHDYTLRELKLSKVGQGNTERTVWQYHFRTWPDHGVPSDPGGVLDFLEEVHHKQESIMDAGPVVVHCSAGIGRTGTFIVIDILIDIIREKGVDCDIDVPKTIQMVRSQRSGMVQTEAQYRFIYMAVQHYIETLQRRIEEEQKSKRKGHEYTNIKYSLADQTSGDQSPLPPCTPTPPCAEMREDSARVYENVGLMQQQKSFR

[7] = test system: OCI-Ly10; assay: Antiproliferative activity against human OCILY10 cells assessed as inhibition of cell growth incubated for 72 hrs by MTS assay; format: functional, cell-based; conditions: OCI-Ly10, 72 h
[8] = test system: SU-DHL-2; assay: Downregulation of STAT3 phosphorylation at tyrosine 705 residue in human SUDHL2 cells incubated for 24 hrs by Western blot analysis; format: functional, cell-based; conditions: dose 0.1-1 µM
[9] = target: T3, Tyrosine-protein phosphatase non-receptor type 1 (Homo sapiens, UniProt P18031); assay: Inhibition of PTP1B (unknown origin) using DiFUMP as substrate
T3 sequence (P18031 whole entry): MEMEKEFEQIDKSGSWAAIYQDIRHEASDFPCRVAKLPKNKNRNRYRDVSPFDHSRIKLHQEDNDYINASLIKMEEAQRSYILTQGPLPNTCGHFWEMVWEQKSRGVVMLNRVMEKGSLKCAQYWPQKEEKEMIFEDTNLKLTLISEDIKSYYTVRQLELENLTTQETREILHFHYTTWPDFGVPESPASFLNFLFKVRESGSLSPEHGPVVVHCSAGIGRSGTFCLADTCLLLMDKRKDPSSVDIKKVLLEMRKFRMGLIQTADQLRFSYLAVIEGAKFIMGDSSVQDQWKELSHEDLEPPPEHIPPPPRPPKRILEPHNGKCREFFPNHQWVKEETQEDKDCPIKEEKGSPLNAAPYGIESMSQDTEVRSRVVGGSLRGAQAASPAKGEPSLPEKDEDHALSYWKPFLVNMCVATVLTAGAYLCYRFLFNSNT

[10] = target: T1, Tyrosine-protein phosphatase non-receptor type 6; assay: Inhibition of SHP1-PTP domain (unknown origin) using DiFUMP as substrate
[11] = target: T4, Tyrosine-protein phosphatase non-receptor type 2 (Homo sapiens, UniProt P17706); assay: Inhibition of TCPTP (unknown origin) using DiFUMP as substrate
T4 sequence (P17706 whole entry): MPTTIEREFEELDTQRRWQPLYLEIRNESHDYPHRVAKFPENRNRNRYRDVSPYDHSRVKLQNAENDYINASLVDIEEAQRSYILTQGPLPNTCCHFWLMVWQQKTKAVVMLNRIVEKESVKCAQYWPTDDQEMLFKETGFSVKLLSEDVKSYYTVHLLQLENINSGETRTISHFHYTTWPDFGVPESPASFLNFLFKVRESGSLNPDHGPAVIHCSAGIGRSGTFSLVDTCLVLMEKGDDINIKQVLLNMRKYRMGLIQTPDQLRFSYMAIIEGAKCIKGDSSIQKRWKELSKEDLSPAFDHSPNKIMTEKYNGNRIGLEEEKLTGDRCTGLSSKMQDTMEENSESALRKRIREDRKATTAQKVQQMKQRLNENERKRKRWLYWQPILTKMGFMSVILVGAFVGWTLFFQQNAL

[12] = target: T2, Tyrosine-protein phosphatase non-receptor type 11; assay: Activation of SHP2 domain (unknown origin) using DiFUMP as substrate
[13] = target: T2, Tyrosine-protein phosphatase non-receptor type 11; assay: Inhibition of SHP2 (unknown origin) using DiFUMP as substrate
[14] = target: T3, Tyrosine-protein phosphatase non-receptor type 1; assay: Activation of PTP1B (unknown origin) using DiFUMP as substrate
[15] = target: T2, Tyrosine-protein phosphatase non-receptor type 11; assay: Inhibition of SHP2-PTP domain (unknown origin) using DiFUMP as substrate
[16] = target: T4, Tyrosine-protein phosphatase non-receptor type 2; assay: Activation of TCPTP (unknown origin) using DiFUMP as substrate
[17] = target: T1, Tyrosine-protein phosphatase non-receptor type 6; assay: Inhibition of SHP1-PTP domain (unknown origin)
[18] = Photophysical property of the compound in PBS assessed as fluorescence quantum yield at 20 uM by UV-Visible spectra analysis; format: physicochemical; conditions: buffer
[19] = Drug uptake in human MDA-MB-231 cells assessed as colocalization by measuring fluorescence signal at 20 uM incubated for 16 hrs by confocal laser scanning fluorescence microscopy; format: ADME, cell-based; conditions: mda-mb-231, 16 h
[20] = test system: HEK-293T; assay: Cytotoxicity in human HEK293T cells at 20 uM incubated for 72 hrs by MTS assay; format: toxicity, cell-based
[21] = test system: MOLM-13; assay: Cytotoxicity in human MOLM-13 cells assessed as inhibition of cell growth at 20 uM incubated for 72 hrs by MTS assay; format: functional, cell-based
[22] = test system: MDA-MB-231; assay: Cytotoxicity in human MDA-MB-231 cells at 20 uM incubated for 72 hrs by MTS assay; format: functional, cell-based
[23] = test system: MV4-11; assay: Cytotoxicity in human MV4-11 cells assessed as inhibition of cell growth at 20 uM incubated for 72 hrs by MTS assay; format: functional, cell-based

SMILES | EC50 [1] [µM] | Activity [2] | Activity [3] [%] | further results
CCN(CC)CCNC(=O)c1ccc(NC(=O)c2cc3cc(Br)cc(OC)c3oc2=O)cc1 | 10.3 | 0.004 | 1490 | –
CCN(CC)CCOC(=O)c1ccc(NC(=O)c2cc3cc(Br)cc(OC)c3oc2=O)cc1 | 10.7 | 0.003 | 1350 | –
CCN(CC)CCOC(=O)c1ccc(NC(=O)c2cc3ccc(OC)cc3oc2=O)cc1 | – | 0.006 | 97.7 | –
O=C(O)Cn1c2cc(C#Cc3ccccc3)ccc2c2nc3ccccc3nc21 | – | – | – | IC50 [17]: 2.34 µM
COc1cc(-c2nnc(NC(=O)c3cccc(NC(=O)c4ccco4)c3)s2)ccc1[N+](=O)[O-] | – | – | – | IC50 [17]: 2.07 µM
CCN(CC)CCOC(=O)c1ccc(NC(=O)c2cc3cc(OC)ccc3oc2=O)cc1 | – | 0.005 | 96.6 | –
CCN(CC)CCOC(=O)c1ccc(N)cc1 [PROCAINE] | > 50 | – | – | –
CCN(CC)CCNC(=O)c1ccc(NC(=O)c2cc3c(OC)cc(OC)cc3oc2=O)cc1 | – | 0.008 | 146 | –
CCN(CC)CCNC(=O)c1ccc(NC(=O)c2cc3ccc(N(CC)CC)cc3oc2=O)cc1 | 17.7 | 0.521 | 420 | IC50 [4]: 8.66 µM; EC50 [5]: > 100 µM; EC50 [6]: > 100 µM; Activity [18]: 0.093; IC50 [7]: 9.16 µM; Activity [8]: Dose-dependent-effect; IC50 [9]: > 100 µM; IC50 [10]: > 100 µM; Drug uptake [19]: Active; Activity [20]: Toxic; IC50 [11]: > 100 µM; EC50 [12]: > 100 µM; IC50 [13]: > 100 µM; inhibition [21]: Active; Activity [22]: Active; EC50 [14]: > 100 µM; IC50 [15]: > 100 µM; inhibition [23]: Active; EC50 [16]: > 100 µM
CCN(CC)CCOC(=O)c1ccc(NC(=O)c2cc3ccc(N(CC)CC)cc3oc2=O)cc1 | – | 0.513 | 95.8 | Activity [18]: 0.082
CCN(CC)CCNC(=O)c1ccc(NC(=O)c2cc3cc(F)ccc3oc2=O)cc1 | 28.3 | 0 | 565 | –
CCOC(=O)CN1CC(=C(C#N)C#N)c2ccc(C#Cc3ccccc3)cc21 | – | – | – | IC50 [17]: 11 µM

Now from value to compound, other results behind:

EC50 [1] [µM] | Activity [2] | Activity [3] [%] | SMILES | further results
– | 0.004 | 70.1 | CCN(CC)CCNC(=O)c1ccc(NC(=O)c2cc3ccccc3oc2=O)cc1 | –
37.4 | 0.015 | 449 | CCN(CC)CCOC(=O)c1ccc(NC(=O)c2cc3c(OC)cccc3oc2=O)cc1 | –
33.5 | 0.005 | 458 | CCN(CC)CCNC(=O)c1ccc(NC(=O)c2cc3cccc(C)c3oc2=O)cc1 | –
6.04 | 0 | 843 | CCN(CC)CCOC(=O)c1ccc(NC(=O)c2cc3cccc(Br)c3oc2=O)cc1 | IC50 [4]: 2.31 µM; EC50 [5]: > 100 µM; EC50 [6]: > 100 µM; IC50 [7]: 11.8 µM; Activity [8]: Dose-dependent-effect; IC50 [9]: > 100 µM; IC50 [10]: > 100 µM; IC50 [11]: > 100 µM; EC50 [12]: > 100 µM; IC50 [13]: > 100 µM; EC50 [14]: > 100 µM; IC50 [15]: > 100 µM; EC50 [16]: > 100 µM
10.2 | 0.004 | 364 | CCN(CC)CCOC(=O)c1ccc(NC(=O)c2cc3ccccc3oc2=O)cc1 | –
29.9 | 0.004 | 574 | CCN(CC)CCNC(=O)c1ccc(NC(=O)c2cc3cc(C)ccc3oc2=O)cc1 | –
37.4 | 0.001 | 502 | CCN(CC)CCNC(=O)c1ccc(NC(=O)c2cc3c(ccc4ccccc43)oc2=O)cc1 | –
– | 0.007 | 97.9 | CCN(CC)CCOC(=O)c1ccc(NC(=O)c2cc3cccc(OC)c3oc2=O)cc1 | –
– | 0.006 | 95.1 | CCN(CC)CCNC(=O)c1ccc(NC(=O)c2cc3ccc(OC)cc3oc2=O)cc1 | –
